Measured values reported in ChEMBL document CHEMBL4765421, “Synthesis of natural 3'-Prenylchalconaringenin and biological evaluation of ameliorating non-alcoholic fatty liver disease and metabolic syndrome” (Eur J Med Chem, 2020).
Active and inactive are the calls of the source.

Key:
[1] = test system: HepG2; assay: Cytotoxicity against human HepG2 cells assessed as reduction in cell viability at 10 to 20 uM by MTT assay; format: cell-based; details: hepg2, 20 µM, dose 10-20 µM
[2] = test system: Mus musculus; assay: In vivo effect on PPAR signaling in tyloxapol-induced Kunming mouse model of hyperlipidemia assessed as decrease in PPARgamma expression in white adipose tissue at 100 mg/kg, po measured after 24 hrs by Western blot analysis; format: functional, organism-based
[3] = test system: Mus musculus; assay: In vivo induction of AMPK in tyloxapol-induced Kunming mouse model of hyperlipidemia assessed as increase in CPT-1A phosphorylation in liver at 100 mg/kg, po measured after 24 hrs by Western blot analysis; format: functional, organism-based
[4] = test system: Mus musculus; assay: In vivo effect on PPAR signaling in tyloxapol-induced Kunming mouse model of hyperlipidemia assessed as increase in mTOR phosphorylation in liver at 100 mg/kg, po measured after 24 hrs by Western blot analysis; format: functional, organism-based
[5] = test system: Mus musculus; assay: In vivo effect on PPAR signaling in tyloxapol-induced Kunming mouse model of hyperlipidemia assessed as decrease in PPARgamma expression in liver at 100 mg/kg, po measured after 24 hrs by Western blot analysis; format: functional, organism-based
[6] = test system: Mus musculus; assay: In vivo effect on PPAR signaling in tyloxapol-induced Kunming mouse model of hyperlipidemia assessed as decrease in PPARbeta expression in white adipose tissue at 100 mg/kg, po measured after 24 hrs by Western blot analysis; format: functional, organism-based
[7] = test system: Mus musculus; assay: Hypolipidemic activity in tyloxapol-induced Kunming mouse model of hyperlipidemia assessed as perirenal white adipose tissue index at 100 mg/kg, po measured after 24 hrs (reference value: 18.14 +/- 1.44); format: functional
[8] = test system: Mus musculus; assay: Hypolipidemic activity in tyloxapol-induced Kunming mouse model of hyperlipidemia assessed as reduction in serum total cholesterol level at 100 mg/kg, po measured after 24 hrs; format: functional, organism-based
[9] = test system: Mus musculus; assay: Hypolipidemic activity in tyloxapol-induced Kunming mouse model of hyperlipidemia assessed as reduction in serum triglyceride level at 100 mg/kg, po measured after 24 hrs; format: functional, organism-based
[10] = test system: Mus musculus; assay: Hypolipidemic activity in tyloxapol-induced Kunming mouse model of hyperlipidemia assessed as epididymis white adipose tissue index at 100 mg/kg, po measured after 24 hrs (reference value: 23.43 +/- 3.10); format: functional
[11] = test system: Mus musculus; assay: In vivo induction of AMPK in tyloxapol-induced Kunming mouse model of hyperlipidemia assessed as decrease in SREBP1-C expression in white adipose tissue at 100 mg/kg, po measured after 24 hrs by Western blot analysis; format: functional, organism-based
[12] = test system: Mus musculus; assay: In vivo induction of AMPK in tyloxapol-induced Kunming mouse model of hyperlipidemia assessed as increase in AMPKalpha phosphorylation in white adipose tissue at 100 mg/kg, po measured after 24 hrs by Western blot analysis; format: functional, organism-based
[13] = test system: Mus musculus; assay: In vivo induction of AMPK in tyloxapol-induced Kunming mouse model of hyperlipidemia assessed as increase in ACC phosphorylation in liver at 100 mg/kg, po measured after 24 hrs by Western blot analysis; format: functional, organism-based
[14] = test system: Mus musculus; assay: Hypolipidemic activity in tyloxapol-induced Kunming mouse model of hyperlipidemia assessed as reduction in serum IL6 level at 100 mg/kg, po measured after 24 hrs; format: functional, organism-based
[15] = test system: Mus musculus; assay: Hypolipidemic activity in tyloxapol-induced Kunming mouse model of hyperlipidemia assessed as reduction in serum ALT level at 100 mg/kg, po measured after 24 hrs; format: functional, organism-based
[16] = test system: Mus musculus; assay: In vivo effect on PPAR signaling in tyloxapol-induced Kunming mouse model of hyperlipidemia assessed as increase in PPARbeta expression in liver at 100 mg/kg, po measured after 24 hrs by Western blot analysis; format: functional, organism-based
[17] = test system: Mus musculus; assay: In vivo induction of AMPK in tyloxapol-induced Kunming mouse model of hyperlipidemia assessed as decrease in FAS expression in liver at 100 mg/kg, po measured after 24 hrs by Western blot analysis; format: functional, organism-based
[18] = test system: Mus musculus; assay: Hypolipidemic activity in tyloxapol-induced Kunming mouse model of hyperlipidemia assessed as kidney index at 100 mg/kg, po measured after 24 hrs (reference value: 11.20 +/- 0.58); format: functional
[19] = test system: Mus musculus; assay: In vivo induction of AMPK in tyloxapol-induced Kunming mouse model of hyperlipidemia assessed as increase in ACC phosphorylation in white adipose tissue at 100 mg/kg, po measured after 24 hrs by Western blot analysis; format: functional, organism-based
[20] = test system: Mus musculus; assay: In vivo induction of AMPK in tyloxapol-induced Kunming mouse model of hyperlipidemia assessed as increase in AKT phosphorylation in liver at 100 mg/kg, po measured after 24 hrs by Western blot analysis; format: functional, organism-based
[21] = test system: Mus musculus; assay: Hypolipidemic activity in tyloxapol-induced Kunming mouse model of hyperlipidemia assessed as reduction in lipid level in liver at 100 mg/kg, po measured after 24 hrs by Oil Red O staining based assay; format: functional, organism-based
[22] = test system: Mus musculus; assay: In vivo effect on PPAR signaling in tyloxapol-induced Kunming mouse model of hyperlipidemia assessed as increase in PPARalpha expression in white adipose tissue at 100 mg/kg, po measured after 24 hrs by Western blot analysis; format: functional, organism-based
[23] = test system: Mus musculus; assay: Hypolipidemic activity in tyloxapol-induced Kunming mouse model of hyperlipidemia assessed as liver index at 100 mg/kg, po measured after 24 hrs (reference value: 65.00 +/- 0.87); format: functional
[24] = test system: Mus musculus; assay: In vivo effect on PPAR signaling in tyloxapol-induced Kunming mouse model of hyperlipidemia assessed as increase in PPARalpha expression in liver at 100 mg/kg, po measured after 24 hrs by Western blot analysis; format: functional, organism-based
[25] = test system: Mus musculus; assay: Hypolipidemic activity in tyloxapol-induced Kunming mouse model of hyperlipidemia assessed as increase in appearance of hepatic lobules at 100 mg/kg, po measured after 24 hrs by Oil Red O staining based assay; format: functional, organism-based
[26] = test system: HepG2; assay: Activation of AMPK in oleic, palmitic, linoleic and arachidonic acid 29:47:18:6 (v/v)-induced human HepG2 cells assessed as increase in ACC phosphorylation by Western blot; details: filed as activator
[27] = test system: Mus musculus; assay: Hypolipidemic activity in tyloxapol-induced Kunming mouse model of hyperlipidemia assessed as spleen index at 100 mg/kg, po measured after 24 hrs (reference value: 3.87 +/- 0.05); format: functional
[28] = test system: Mus musculus; assay: In vivo induction of AMPK in tyloxapol-induced Kunming mouse model of hyperlipidemia assessed as decrease in FAS expression in white adipose tissue at 100 mg/kg, po measured after 24 hrs by Western blot analysis; format: functional, organism-based
[29] = test system: Mus musculus; assay: Hypolipidemic activity in tyloxapol-induced Kunming mouse model of hyperlipidemia assessed as reduction in serum LDL level at 100 mg/kg, po measured after 24 hrs; format: functional, organism-based
[30] = test system: Mus musculus; assay: Hypolipidemic activity in tyloxapol-induced Kunming mouse model of hyperlipidemia assessed as reduction in serum AST level at 100 mg/kg, po measured after 24 hrs; format: functional, organism-based
[31] = test system: HepG2; assay: Activation of AMPK in oleic, palmitic, linoleic and arachidonic acid 29:47:18:6 (v/v)-induced human HepG2 cells assessed as increase in AMPK phosphorylation by Western blot; details: filed as activator
[32] = test system: Mus musculus; assay: In vivo induction of AMPK in tyloxapol-induced Kunming mouse model of hyperlipidemia assessed as increase in CPT-1A phosphorylation in white adipose tissue at 100 mg/kg, po measured after 24 hrs by Western blot analysis; format: functional, organism-based
[33] = test system: Mus musculus; assay: In vivo induction of AMPK in tyloxapol-induced Kunming mouse model of hyperlipidemia assessed as increase in AMPKalpha phosphorylation in liver at 100 mg/kg, po measured after 24 hrs by Western blot analysis; format: functional, organism-based
[34] = test system: Mus musculus; assay: Hypolipidemic activity in tyloxapol-induced Kunming mouse model of hyperlipidemia assessed as reduction in fatty liver phenotype at 100 mg/kg, po measured after 24 hrs; format: functional, organism-based
[35] = test system: Mus musculus; assay: In vivo effect on PPAR signaling in tyloxapol-induced Kunming mouse model of hyperlipidemia assessed as increase in mTOR phosphorylation in white adipose tissue at 100 mg/kg, po measured after 24 hrs by Western blot analysis; format: functional, organism-based
[36] = test system: Mus musculus; assay: In vivo induction of AMPK in tyloxapol-induced Kunming mouse model of hyperlipidemia assessed as increase in AKT phosphorylation in white adipose tissue at 100 mg/kg, po measured after 24 hrs by Western blot analysis; format: functional, organism-based
[37] = test system: Mus musculus; assay: In vivo induction of AMPK in tyloxapol-induced Kunming mouse model of hyperlipidemia assessed as decrease in SREBP1-C expression in liver at 100 mg/kg, po measured after 24 hrs by Western blot analysis; format: functional, organism-based
[38] = test system: 3T3-L1; assay: Hypolipidemic activity in mouse 3T3-L1 preadipocytes assessed as reduction in lipid content at 10 uM by Oil Red O staining based assay relative to control; format: functional; design: scale not given: the % may be the effect or the level left
[39] = test system: HepG2; assay: Hypolipidemic activity in oleic, palmitic, linoleic and arachidonic acid 29:47:18:6 (v/v)-induced hyperlipidemia in human HepG2 cells assessed as reduction in lipid content at 10 uM by Oil Red O staining based assay relative to control; format: functional; design: scale not given: the % may be the effect or the level left
[40] = test system: 3T3-L1; assay: Hypolipidemic activity in mouse 3T3-L1 mature adipocytes assessed as reduction in lipid content at 10 uM by Oil Red O staining based assay relative to control; format: functional; design: scale not given: the % may be the effect or the level left

O=C(/C=C/c1ccc(O)cc1)c1c(O)cc(O)cc1O [4,2',4',6'-TETRAHYDROXYCHALCONE]
Non-Toxic: Activity [1]

NC(=O)c1ncn([C@@H]2O[C@H](CO)[C@@H](O)[C@H]2O)c1N [ACADESINE]
active: Activity [2] | Activity [3] | Activity [4] | Activity [5] | Activity [6] | Activity [8] | Activity [9] | Activity [11] | Activity [12] | Activity [13] | Activity [14] | Activity [15] | Activity [16] | Activity [17] | Activity [19] | Activity [20] | Activity [21] | Activity [22] | Activity [24] | Activity [25] | Activity [26] | Activity [28] | Activity [29] | Activity [30] | Activity [31] | Activity [32] | Activity [33] | Activity [34] | Activity [35] | Activity [36] | Activity [37]
8.64: Activity_index [18]
3.01: Activity_index [27]
57.41: Activity_index [23]
20.09: Activity_index [10]
15.94: Activity_index [7]

CC(C)=CCc1c(O)cc(O)c(C(=O)/C=C/c2ccc(O)cc2)c1O [DEMETHYLXANTHOHUMOL]
Non-Toxic: Activity [1]

CC(C)OC(=O)C(C)(C)Oc1ccc(C(=O)c2ccc(Cl)cc2)cc1 [FENOFIBRATE]
14.55: Activity_index [7]
56.59: Activity_index [23]
active: Activity [2] | Activity [3] | Activity [4] | Activity [5] | Activity [6] | Activity [8] | Activity [9] | Activity [11] | Activity [12] | Activity [13] | Activity [14] | Activity [15] | Activity [16] | Activity [17] | Activity [19] | Activity [20] | Activity [21] | Activity [22] | Activity [24] | Activity [25] | Activity [28] | Activity [29] | Activity [30] | Activity [32] | Activity [33] | Activity [34] | Activity [35] | Activity [36] | Activity [37]
2.85: Activity_index [27]
9.65: Activity_index [18]
15.43: Activity_index [10]

CC[C@H](C)C(=O)O[C@H]1C[C@@H](C)C=C2C=C[C@H](C)[C@H](CC[C@@H]3C[C@@H](O)CC(=O)O3)[C@H]21 [LOVASTATIN]
47.2%: Activity [40]
41.17%: Activity [39]
67.14%: Activity [38]
